# Test system: Bemisia tabaci (whitefly) biotype B
# Assay: Mortality assay (leaf dip bioassay)
# Assay type: in vivo
# Conditions: adult insects on treated cotton leaf discs, mortality evaluated at 24 and 48 hours
# Method: The “leaf dip bioassay” used for testing the activity of insecticides against Bemisia tabaci (whitefly) biotype B, was similar to that described by Cahill, M et al, Bull. Entomol. Res. 85, 181-187, 1995.
# Cotton plants (Gossypium hirsutum L.) were grown without any exposure to the insecticides. The leaves were cut up into disc shapes and immersed in an aqueous solution of insecticide containing 0.01% of Agral then left to dry at 25° C.
# Control leaves were immersed in Agral and distilled water only.
# About 20 adult insects were placed onto the small discs of treated cotton leaf.
# The insects were allowed to feed and maximum mortality was evaluated at 24 and 48 hours.
# LC50% a.i. (=active ingredient) and LC99% a.i. indicate the quantity of insecticide able to achieve mortality for 50% and 99% of the insects tested.
# As a comparison, the data obtained with commercial bifenthrin in the absence of the synergistic compound (PBO) and the data obtained with commercial bifenthrin in a mixture with the same quantity of PBO present in the formulation product of example 1 are given in the same table.
smiles,measurement,setting,value
Cc1c(COC(=O)[C@@H]2[C@H](/C=C(\Cl)C(F)(F)F)C2(C)C)cccc1-c1ccccc1 (racemic) [Bifenthrin],LC50% a.i.,quantity of insecticide giving 50% mortality,0.01 ppm
same,LC99% a.i.,quantity of insecticide giving 99% mortality,257 ppm

# — patent publication US8025894B2, “Innovative formulation” (Endura S.p.A., priority 2005, dated 2011)
